Assay [1] deals with rhinovirus B14. The experiment in a line: In vitro antiviral activity against human rhinovirus-14 using plaque reduction assay; not active. To be noted: human rhinovirus type 14. The assay is classed as functional, organism-based. For orientation: In a plaque reduction assay, fewer plaques than in the control indicate reduced infectivity or spread.
Assay [2] has as its system Human rhinovirus 1A. The experiment in a line: In vitro antiviral activity against human rhinovirus-1A using plaque reduction assay; not active. The assay is classed as functional, organism-based.
Assay [3] relates to Human rhinovirus 1A. The experiment in a line: In vitro antiviral activity against human rhinovirus-1A using plaque reduction assay. The assay is classed as functional.
Assay [4] relates to rhinovirus B14. The experiment in a line: In vitro antiviral activity against human rhinovirus-14 using plaque reduction assay. Type of assay: functional, human rhinovirus type 14. Conditions: Rhinovirus B.
Assay [5] relates to Human rhinovirus sp. The experiment in a line: Minimum inhibitory concentration which inhibits 80% of serotypes was determined. Type of assay: functional.
Assay [6] concerns Human rhinovirus sp. The experiment in a line: In vitro antiviral activity against human rhinovirus 67 serotype. Type of assay: functional.
In assay [7] the test system is Human rhinovirus sp. The experiment in a line: In vitro antiviral activity against human rhinovirus-30 serotype. The assay is classed as functional.
Assay [8] has as its system Human rhinovirus sp. The experiment in a line: In vitro antiviral activity against human rhinovirus 86 serotype. The assay is classed as functional.
Assay [9] has as its system Human rhinovirus sp. The experiment in a line: In vitro antiviral activity against human rhinovirus 1A serotype. Type of assay: functional.
The test system of assay [10] is Human rhinovirus sp. The experiment in a line: In vitro antiviral activity against human rhinovirus-21 serotype. The assay is classed as functional.
In assay [11] the test system is Human rhinovirus sp. The experiment in a line: In vitro antiviral activity against human rhinovirus-41 serotype. The assay is classed as functional.
For assay [12], the system named is Human rhinovirus sp. The experiment in a line: In vitro antiviral activity against human rhinovirus 89 serotype. Type of assay: functional.
Assay [13] has as its system Human rhinovirus sp. The experiment in a line: In vitro antiviral activity against human rhinovirus 50 serotype. Type of assay: functional.
For assay [14], the system named is Human rhinovirus sp. The experiment in a line: In vitro antiviral activity against human rhinovirus-22 serotype. The assay is classed as functional.
For assay [15], the system named is Human rhinovirus sp. The experiment in a line: In vitro antiviral activity against human rhinovirus 6 serotype. Type of assay: functional.
The test system of assay [16] is Human rhinovirus sp. The experiment in a line: In vitro antiviral activity against human rhinovirus-25 serotype. The assay is classed as functional.
The subject of assay [17] is Human rhinovirus sp. The experiment in a line: In vitro antiviral activity against human rhinovirus 2 serotype. Type of assay: functional.
Assay [18] has as its system Human rhinovirus sp. The experiment in a line: In vitro antiviral activity against human rhinovirus-15 serotype. The assay is classed as functional.
For assay [19], the system named is Human rhinovirus sp. The experiment in a line: In vitro antiviral activity against human rhinovirus 1B serotype. Type of assay: functional.
For assay [20], the system named is Human rhinovirus sp. The experiment in a line: In vitro antiviral activity against human rhinovirus 14 serotype. The assay is classed as functional.

≈ marks a conversion by molar mass, not a printed value. Calls of active or inactive are those of the source. The rule behind the calls is not given here.

For the molecule `COC(=O)Cn1nnc(-c2cc(C)c(OCCCCCc3cc(C)no3)c(C)c2)n1`, the MIC50 entry in the assay on rhinovirus B14 [1] and with Human rhinovirus 1A [2] was “inactive” each time.
As for `Cc1cc(-c2nnn(C)n2)cc(C)c1OCCCCCc1cc(C(=O)O)no1`, the MIC50 against Human rhinovirus 1A [3] was 1.4 µM (≈ 0.54 µg/mL); against rhinovirus B14 [4] it was 30.4 µM (≈ 11.7 µg/mL).
`Cc1cc(CCCCCCOc2c(C)cc(-c3nnn(C)n3)cc2C)on1`: the figures for the MIC50 against Human rhinovirus 1A [3] and in the assay on rhinovirus B14 [4] were 0.24 µM (≈ 0.0887 µg/mL) and 1.91 µM (≈ 0.706 µg/mL), respectively. In the assay on Human rhinovirus sp. [5], this molecule came in with an MIC80 of 0.73 µM (≈ 0.27 µg/mL).
As to `Cc1cc(-c2nnn(C)n2)cc(C)c1OCCCc1cc(CO)no1`, the MIC50 turned out to be 0.2 µM (≈ 0.0687 µg/mL) with Human rhinovirus 1A [3] and 3.4 µM (≈ 1.17 µg/mL) with rhinovirus B14 [4]. In addition, in the assay with Human rhinovirus sp. [5], the MIC80 is 3.4 µM (≈ 1.17 µg/mL).
On to `CCCc1cc(CCCOc2c(C)cc(-c3nnn(C)n3)cc2C)on1`, for which the MIC in the assay on Human rhinovirus sp. [6] came out at 0.22 µM (≈ 0.0782 µg/mL); against Human rhinovirus sp. [7], 0.2 µM (≈ 0.0711 µg/mL); against Human rhinovirus sp. [8], 0.12 µM (≈ 0.0427 µg/mL); against Human rhinovirus sp. [9] it was 0.12 µM (≈ 0.0427 µg/mL); against Human rhinovirus sp. [10], 0.02 µM (≈ 0.00711 µg/mL); against Human rhinovirus sp. [11], 0.93 µM (≈ 0.331 µg/mL). Also, the MIC against Human rhinovirus sp. [12] stood at 0.02 µM (≈ 0.00711 µg/mL); against Human rhinovirus sp. [13] it was 0.09 µM (≈ 0.032 µg/mL); against Human rhinovirus sp. [14], 0.08 µM (≈ 0.0284 µg/mL); against Human rhinovirus sp. [15] it was 0.15 µM (≈ 0.0533 µg/mL); against Human rhinovirus sp. [16], 0.006 µM (≈ 0.00213 µg/mL); with Human rhinovirus sp. [17], 0.04 µM (≈ 0.0142 µg/mL). In addition, the MIC in the assay with Human rhinovirus sp. [18] was found to be 0.68 µM (≈ 0.242 µg/mL); against Human rhinovirus sp. [19], 0.03 µM (≈ 0.0107 µg/mL); in the assay on Human rhinovirus sp. [5], 0.2 µM (≈ 0.0711 µg/mL); against Human rhinovirus sp. [20], 0.12 µM (≈ 0.0427 µg/mL). Further, the MIC50 against Human rhinovirus 1A [3] and against rhinovirus B14 [4] was 0.12 µM (≈ 0.0427 µg/mL) each time. In addition, the MIC80 against Human rhinovirus sp. [5] was 0.2 µM (≈ 0.0711 µg/mL).
As for `Cc1cc(-c2nnn(C)n2)cc(C)c1OCCCCCc1cc(COCOCCO)no1`, the MIC50 with Human rhinovirus 1A [3] came out at 4.03 µM (≈ 1.8 µg/mL); in the assay with rhinovirus B14 [4], 0.06 µM (≈ 0.0267 µg/mL).
For `COc1cc(CCCOc2c(C)cc(-c3nnn(C)n3)cc2C)on1`, the values for the MIC50 against Human rhinovirus 1A [3] and in the assay with rhinovirus B14 [4] were 0.11 µM (≈ 0.0378 µg/mL) and 1.4 µM (≈ 0.481 µg/mL), respectively. This molecule also yielded an MIC80 against Human rhinovirus sp. [5] of 0.33 µM (≈ 0.113 µg/mL).
Turning to `COCCc1cc(CCCOc2c(C)cc(-c3nnn(C)n3)cc2C)on1`, the MIC50 in the assay with Human rhinovirus 1A [3] worked out at 0.12 µM (≈ 0.0446 µg/mL); against rhinovirus B14 [4], 0.05 µM (≈ 0.0186 µg/mL). This molecule also had an MIC80 against Human rhinovirus sp. [5] of 0.3 µM (≈ 0.111 µg/mL).
As for `CCn1nnc(-c2cc(C)c(OCCCc3cc(C)no3)c(C)c2)n1`, the MIC50 against Human rhinovirus 1A [3] was 0.67 µM (≈ 0.229 µg/mL); in the assay with rhinovirus B14 [4] it was 0.8 µM (≈ 0.273 µg/mL). The MIC80 in the assay with Human rhinovirus sp. [5] was determined as 0.25 µM (≈ 0.0854 µg/mL).
The like results for `Cc1cc(-c2nnn(C)n2)cc(C)c1OCCCc1cc(C(C)C)no1` were, in that order, 0.28 µM (≈ 0.0995 µg/mL), 0.73 µM (≈ 0.259 µg/mL) and 0.73 µM (≈ 0.259 µg/mL).
On to `CCn1nnc(-c2cc(C)c(OCCCCCc3cc(C)no3)c(C)c2)n1`, for which the MIC50 against Human rhinovirus 1A [3] and in the assay on rhinovirus B14 [4] was 0.73 µM (≈ 0.27 µg/mL) throughout. The same molecule yielded an MIC80 with Human rhinovirus sp. [5] of 0.65 µM (≈ 0.24 µg/mL).
Consider `Cc1cc(-c2nnn(C)n2)cc(C)c1OCCCc1cc(CC(C)C)no1`, for which the MIC50 against Human rhinovirus 1A [3] was 0.46 µM (≈ 0.17 µg/mL); with rhinovirus B14 [4] it was 0.32 µM (≈ 0.118 µg/mL). Besides, the MIC80 in the assay with Human rhinovirus sp. [5] was determined as 1.5 µM (≈ 0.554 µg/mL).
The like results for `CCOc1cc(CCCOc2c(C)cc(-c3nnn(C)n3)cc2C)on1` were, in that order, 0.15 µM (≈ 0.0536 µg/mL), 0.1 µM (≈ 0.0357 µg/mL) and 0.7 µM (≈ 0.25 µg/mL).
On to `CCC(O)c1cc(CCCOc2c(C)cc(-c3nnn(C)n3)cc2C)on1` (stereo not drawn), for which the MIC50 entry in the assay with Human rhinovirus 1A [2] was “inactive”. The molecule further returned an MIC50 against rhinovirus B14 [4] of 0.13 µM (≈ 0.0483 µg/mL).
`Cc1cc(-c2nnn(C)n2)cc(C)c1OCCCc1cc(C2CC2)no1`: the figures for the MIC50 in the assay with Human rhinovirus 1A [3] and with rhinovirus B14 [4] were 0.19 µM (≈ 0.0672 µg/mL) and 0.48 µM (≈ 0.17 µg/mL), respectively. Further, the MIC80 with Human rhinovirus sp. [5] was 0.48 µM (≈ 0.17 µg/mL).
As to `Cc1cc(-c2nnn(C)n2)cc(C)c1OCCCc1cc(CCO)no1`, the MIC50 is 0.14 µM (≈ 0.05 µg/mL) against Human rhinovirus 1A [3] and 2 µM (≈ 0.715 µg/mL) in the assay on rhinovirus B14 [4]. The molecule further displayed an MIC80 in the assay on Human rhinovirus sp. [5] of 1.09 µM (≈ 0.39 µg/mL).
The like results for `Cc1cc(CCCCCOc2c(Cl)cc(-c3nnn(C)n3)cc2Cl)on1` were, in that order, 0.38 µM (≈ 0.151 µg/mL), 0.38 µM (≈ 0.151 µg/mL) and 0.25 µM (≈ 0.0991 µg/mL).
Take `Cc1cc(CCOc2c(C)cc(-c3nnn(C)n3)cc2C)on1`: in the assay with rhinovirus B14 [1], the MIC50 result was “inactive”. This molecule also yielded an MIC50 in the assay on Human rhinovirus 1A [3] of 2.14 µM (≈ 0.671 µg/mL).
Consider `CCc1cc(CCCOc2c(C)cc(-c3nnn(C)n3)cc2C)on1`, for which the results for the MIC50 in the assay on Human rhinovirus 1A [3] and in the assay with rhinovirus B14 [4] were 0.05 µM (≈ 0.0171 µg/mL) and 0.5 µM (≈ 0.171 µg/mL), respectively. Also, the MIC80 against Human rhinovirus sp. [5] came to 0.41 µM (≈ 0.14 µg/mL).

The values above are taken from ChEMBL document CHEMBL1126867, “Antipicornavirus activity of tetrazole analogues related to disoxaril” (1993).
